# In the NIST ThermoML archive (doi:10.1016/j.fluid.2015.11.009):
# Numbers after ± are expanded uncertainties.
# Tests used:
# [1] = refractive index (Na D-line) (dimensionless); details: 298.15 K; 101.33 kPa; Liquid; Standard Abbe refractometry
# [2] = 298.15 K; 101.33 kPa; Liquid; Pycnometric method
refractive index [1],mass density [2] [kg/m3],SMILES
1.3789 ± 0.0004,957.8 ± 0.3,"COCOCOC [2,4,6-trioxaheptane]"
1.3967 ± 0.0004,805.2 ± 0.3,CCCCO [butan-1-ol]
1.3325 ± 0.0004,–,O [water]
